Reference: patent publication US3997518A, “2-Alkyl-4-carboxyalkyl-5-(3,3'-dimethyltriazeno)-imidazoles” (Beecham Group Limited, priority 1970, dated 1976)
In brackets after ≈: the same amount, converted by molar mass.

Legend:
R1 lymphoma [1] = assay: Activity against R1 lymphoma, increase in survival time (Table A); format: in vivo, mice; details: Mus musculus, ip, read-out: Medium % increase in survival time; for ILS at 64 mg/kg: 64 mg/kg i.p. daily day 3 to day 7; for ILS at 32 mg/kg: 32 mg/kg i.p. daily day 3 to day 7; for ILS at 128 mg/kg: 128 mg/kg i.p. daily day 3 to day 7; for ILS at 33 mg/kg: 33 mg/kg i.p. daily day 3 to day 7
Protocol: (§1) The R1 lymphoma is normally sensitive to anti-metabolites. Typically mice having a transplant of 1.5 × 10^6 tumour cells die from the metastisizing tumour on day 9, 10 or 11 after transplant.
(§2) The compounds illustrated below were dosed by the intra peritoneal route in a vehicle of 10% acetone in arachas oil daily from day 3 to day 7 after tumour transplant. The increase in survival time over control was measured.
(§3) The dose reported is that dose which gave the maximum increase in survival time. Lower doses gave less activity and higher doses are toxic.
(§4) The results are split into two sections (in Table A and Table B) because two slightly different strains of R1 lymphoma were used.

R1 lymphoma [2] = assay: Activity against R1 lymphoma, increase in survival time (Table B, slightly different strain); format: in vivo, mice; details: for ILS at 33 mg/kg: 33 mg/kg i.p. daily day 3 to day 7; for ILS at 128 mg/kg: 128 mg/kg i.p. daily day 3 to day 7
Protocol: as §1, §2, §3, §4

[3] = test system: ADJ/PC6 plasma cell tumour; assay: ADJ/PC6 plasma cell tumour, inhibition of tumour weight; format: in vivo, mice; details: i.p. dosing × 5; for ED90: Mus musculus, ADJ/PC6, ip, read-out: ID90 (the source's name); for Therapeutic Index: LD50 compared with ID90
Text: (§5) The breadth of antitumour spectrum of the compounds of the invention in mice is illustrated by their activity in the ADJ/PC6 plasma cell tumour. This is a solid tumour sensitive to most alkylating agents. Good activity is rarely seen against this tumour and the R1 lymphoma.

[4] = Dose at which 50% of the animals were killed (LD50); design: species or system mice; details: mouse, in vivo, ip; i.p. dosing × 5
Text: as §5

PC 6 tumour = PC 6 tumour screen; format: in vivo, mice
Text: as §5
The test of example 91 was repeated using the PC 6 tumour screen.

Friend leukaemia virus = assay: Friend Leukaemia, inhibition of splenomegally; format: in vivo, mice; details: sub-cutaneously 250 mg/kg/day on day -1, +1, +2 and +3 with respect to infection
Text: Activity of these compounds has also been shown in Friend Leukaemia. Friend leukaemia virus is a prolonged infection in mice produced splenomegally.

Staphylococus aureus = assay: Antibacterial activity, MIC; format: cell-based; details: DST agar + 5% lysed horse blood
Text: (§6) Compounds of this invention have shown antibacterial activity. Thus the minimum inhibitory concentration (M.I.C.) of 4-carboxyethyl-5-(3,3-dimethyltriazeno)-2-phenylimidazole and the corresponding 2-methylimidazole in DST agar + 5% lysed horse blood are illustrated against the following bacteria.

[5] = test system: Streptococus heamolyticus; assay: Antibacterial activity, MIC; format: cell-based; details: DST agar + 5% lysed horse blood
Text: as §6

Candida albicans = assay: Antifungal activity, minimum inhibitory concentration; format: cell-based
Text: (§7) Antifungal activity has been found in compounds of this invention. Thus 4-carboxyethyl-5-(3,3-dimethyltriazeno)-2-phenylimidazole has the following minimum inhibitory concentrations.

Candida neoformans = assay: as above; format: cell-based
Text: as §7

[6] = test system: Trychopyton mentagrophytes; assay: as above; format: cell-based
Text: as §7

E. Coli = assay: Antibacterial activity, MIC; format: cell-based; details: Escherichia coli; DST agar + 5% lysed horse blood
Text: as §6

Proteus mirabilis = assay: Antibacterial activity, MIC; format: cell-based; details: DST agar + 5% lysed horse blood
Text: as §6

Pseudomonas aeroginosa = assay: Antibacterial activity, MIC; format: cell-based; details: DST agar + 5% lysed horse blood
Text: as §6

[7] = Skibba et al., Biochemical Pharmacology, 19, 2043 (1970); cited from earlier work
[8] = Table A strain, dose of maximum increase
[9] = Mus musculus, ip, Table B strain, dose of maximum increase, read-out: Medium % increase in survival time
[10] = dose at which 90% inhibition of tumour weight occurs
[11] = Mus musculus, ip, Table B strain, 32 mg/kg i.p. daily day 3 to day 7, dose of maximum increase, read-out: Medium % increase in survival time

Question: Which ILS at 16 mg/kg (R1 lymphoma [1]; Table A strain, 16 mg/kg i.p. daily day 3 to day 7, dose of maximum increase) does the source give for `COC(=O)c1nc(-c2ccccc2)[nH]c1N=NN(C)C` here?
Answer: 400%

Question: Which ILS at 64 mg/kg (R1 lymphoma [1]; [8]) does the source give for `CCOC(=O)c1nc(Cc2ccccc2)[nH]c1N=NN(C)C` [4-Carbethoxy-5-(3,3-di-methyl-triazeno)-2-benzyl imidazole] here?
Answer: 200%

Question: Which ILS at 32 mg/kg (R1 lymphoma [1]; [8]) does the source give for `CCOC(=O)c1nc(-c2ccccc2)[nH]c1N=NN(C)C` [4-Carbethoxy-5-(3,3-dimethyl-triazeno)-2-phenyl imidazole] here?
Answer: 300%

Question: What about the ILS at 33 mg/kg (R1 lymphoma [2]; [9]) of the same compound?
Answer: 65%

Question: What about the ED90 [3, 10] of the same compound?
Answer: 3.5 mg/kg

Question: What about the “Therapeutic Index” value [3] of the same compound?
Answer: 88

Question: And the LD50 [4]?
Answer: 310 mg/kg

Question: And the “Therapeutic Index” value (PC 6 tumour; i.p. dosing)?
Answer: 27

Question: And the “Therapeutic Index” value (PC 6 tumour; oral dosing)?
Answer: 11

Question: And the “inhibition of the splenomegally” value (Friend leukaemia virus)?
Answer: complete inhibition of the splenomegally

Question: What about the MIC (Staphylococus aureus) of the same compound?
Answer: 10 µg/mL

Question: And the MIC [5]?
Answer: 1 µg/mL

Question: What about the MIC (Candida albicans) of the same compound?
Answer: 10 µg/mL (≈ 34.8 µM)

Question: And the MIC (Candida neoformans)?
Answer: 10 to 50 µg/mL (≈ 34.8 to 174 µM)

Question: What about the MIC [6] of the same compound?
Answer: 10 µg/mL (≈ 34.8 µM)

Question: With `CCOC(=O)c1nc(-c2cccnc2)[nH]c1N=NN(C)C` [4-Carbethoxy-5-(3,3-dimethyltriazeno)-2-(3-pyridyl)imidazole] as the compound, how does the ILS at 32 mg/kg (R1 lymphoma [1]; [8]) read?
Answer: 170%

Question: With `CCOC(=O)c1nc(-c2ccc(F)cc2)[nH]c1N=NN(C)C` [4-Carbethoxy-5-(3,3-dimethyltriazeno)-2-(p-fluorophenyl) imidazole] as the compound, how does the ED90 [3, 10] read?
Answer: 20 mg/kg

Question: What about the “Therapeutic Index” value [3] of the same compound?
Answer: 10

Question: What about the LD50 [4] of the same compound?
Answer: 200 mg/kg

Question: With `CCOC(=O)Cc1nc(C(=O)OCC)c(N=NN(C)C)[nH]1` [4-Carbethoxy-5-(3,3-dimethyltriazeno)-2-carbethoxymethyl imidazole] as the compound, how does the ILS at 64 mg/kg (R1 lymphoma [1]; [8]) read?
Answer: 400%

Question: With `CCOC(=O)c1nc(C2CCCCC2)[nH]c1N=NN(C)C` [4-Carbethoxy-5-(3,3-dimethyltriazeno)-2-cyclohexyl imidazole] as the compound, how does the ILS at 21 mg/kg (R1 lymphoma [2]; Mus musculus, ip, Table B strain, 21 mg/kg i.p. daily day 3 to day 7, dose of maximum increase, read-out: Medium % increase in survival time) read?
Answer: 85%

Question: With `CCOC(=O)c1nc(N(C)C)[nH]c1N=NN(C)C` [4-Carbethoxy-5-(3,3-dimethyltriazeno)-2-dimethylamino imidazole] as the compound, how does the ILS at 16 mg/kg (R1 lymphoma [2]; Mus musculus, ip, Table B strain, 16 mg/kg i.p. daily day 3 to day 7, dose of maximum increase, read-out: Medium % increase in survival time) read?
Answer: 45%

Question: With `CCOC(=O)c1nc(CC)[nH]c1N=NN(C)C` [4-Carbethoxy-5-(3,3-dimethyltriazeno)-2-ethyl imidazole] as the compound, how does the ILS at 32 mg/kg (R1 lymphoma [2]; [11]) read?
Answer: 70%

Question: Which ILS at 128 mg/kg (R1 lymphoma [2]; [9]) does the source give for `CCOC(=O)c1nc(S)[nH]c1N=NN(C)C` [4-Carbethoxy-5-(3,3-dimethyltriazeno)-2-mercapto imidazole] here?
Answer: 140%

Question: For `CCOC(=O)c1nc(C)[nH]c1N=NN(C)C` [4-Carbethoxy-5-(3,3-dimethyltriazeno)-2-methylimidazole], which ILS at 32 mg/kg (R1 lymphoma [2]; [11]) is on record?
Answer: 90%

Question: And the “Therapeutic Index” value (PC 6 tumour; i.p. dosing)?
Answer: 47

Question: What about the “Therapeutic Index” value (PC 6 tumour; oral dosing) of the same compound?
Answer: 40

Question: What about the MIC (E. Coli) of the same compound?
Answer: 15 µg/mL

Question: What about the MIC (Proteus mirabilis) of the same compound?
Answer: 15 µg/mL

Question: What about the MIC (Pseudomonas aeroginosa) of the same compound?
Answer: 62 µg/mL

Question: And the MIC (Staphylococus aureus)?
Answer: 7.5 µg/mL

Question: For `CCCc1nc(C(=O)OCC)c(N=NN(C)C)[nH]1` [4-Carbethoxy-5-(3,3-dimethyltriazeno)-2-n propyl imidazole], which ILS at 32 mg/kg (R1 lymphoma [2]; [11]) is on record?
Answer: 130%

Question: For `CCOC(=O)c1nc(COc2ccc(OC)cc2)[nH]c1N=NN(C)C` [4-Carbethoxy-5-(3,3-dimethyltriazeno)-2-p-methoxy-phenoxymethylimidazole], which ILS at 64 mg/kg (R1 lymphoma [1]; [8]) is on record?
Answer: > 150%

Question: With `CCOC(=O)c1nc(COc2ccccc2)[nH]c1N=NN(C)C` [4-Carbethoxy-5-(3,3-dimethyltriazeno)-2-phenoxymethyl imidazole] as the compound, how does the ILS at 64 mg/kg (R1 lymphoma [1]; [8]) read?
Answer: 85%

Question: For `CCOC(=O)c1nc(C)n(C)c1N=NN(C)C` [4-Carbethoxy-5-(3,3-dimethyltriazeno-1-2 dimethylimidazole], which “Medium % increase in survival time” value (R1 lymphoma [2]; Table B strain, 32 mg/kg i.p. daily day 3 to day 7, dose of maximum increase) is on record?
Answer: 65%

Question: Which ILS at 32 mg/kg (R1 lymphoma [2]; [11]) does the source give for `COC(=O)c1nc(S)[nH]c1N=NN(C)C` [4-Carbmethoxy-5-(3,3-dimethyltriazeno)-2-mercapto imidazole] here?
Answer: 90%

Question: With `CN(C)N=Nc1[nH]c(-c2cccs2)nc1C(N)=O` [4-Carboxamido-5-(3,3-dimethyltriazeno)-2-(2-thienyl)imidazole] as the compound, how does the ILS at 128 mg/kg (R1 lymphoma [1]; [8]) read?
Answer: 50%

Question: Which ILS at 128 mg/kg (R1 lymphoma [2]; [9]) does the source give for `Cc1nc(C(N)=O)c(N=NN(C)C)[nH]1` [4-Carboxamido-5-(3,3-dimethyltriazeno)-2-methyl imidazole] here?
Answer: 60%

Question: What does the source list for `CN(C)N=Nc1[nH]c(-c2ccccc2)nc1C(N)=O` [4-Carboxamido-5-(3,3-dimethyltriazeno)-2-phenylimidazole]?
Answer: ILS at 50 mg/kg (R1 lymphoma [1]; Table A strain, 50 mg/kg i.p. daily day 3 to day 7, dose of maximum increase): 80%; ED90 [3, 10]: 16 mg/kg; Therapeutic Index [3]: 15; LD50 [4]: 240 mg/kg

Question: With `CCOC(=O)c1nc(-c2ccccc2F)[nH]c1N=NN(C)C` [4-Carboxyethyl-5-(3,3-dimethyltriazeno)-2-(2-fluorophenyl) imidazole] as the compound, how does the ILS at 10 mg/kg (R1 lymphoma [1]; Table A strain, 10 mg/kg i.p. daily day 3 to day 7, dose of maximum increase) read?
Answer: 100%

Question: With `CCOC(=O)c1nc(-c2ccc3ccccc3c2)[nH]c1N=NN(C)C` [4-Carboxyethyl-5-(3,3-dimethyltriazeno)-2-(2-naphthyl) imidazole] as the compound, how does the ILS at 128 mg/kg (R1 lymphoma [1]; [8]) read?
Answer: 170%

Question: With `CCOC(=O)c1nc(-c2ccc(OC)c(OC)c2)[nH]c1N=NN(C)C` [4-Carboxyethyl-5-(3,3-dimethyltriazeno)-2-(3,4-dimethoxy-phenyl) imidazole] as the compound, how does the ILS at 33 mg/kg (R1 lymphoma [1]; [8]) read?
Answer: 200%

Question: Which ILS at 128 mg/kg (R1 lymphoma [1]; [8]) does the source give for `CCOC(=O)c1nc(-c2cccc(C)c2)[nH]c1N=NN(C)C` [4-Carboxyethyl-5-(3,3-dimethyltriazeno)-2-(3-methyl-phenyl) imidazole] here?
Answer: 150%

Question: Which ILS at 33 mg/kg (R1 lymphoma [1]; [8]) does the source give for `CCOC(=O)c1nc(-c2ccsc2)[nH]c1N=NN(C)C` [4-Carboxyethyl-5-(3,3-dimethyltriazeno)-2-(3-thienyl) imidazole] here?
Answer: 200%

Question: With `CCOC(=O)c1nc(-c2ccc(OC)cc2)[nH]c1N=NN(C)C` [4-Carboxyethyl-5-(3,3-dimethyltriazeno)-2-(4-methoxyphenyl) imidazole] as the compound, how does the ILS at 33 mg/kg (R1 lymphoma [1]; [8]) read?
Answer: 50%

Question: For `CCOC(=O)c1nc(-c2ccc(Cl)cc2)[nH]c1N=NN(C)Cc1ccccc1` [4-Carboxyethyl-5-(3-methyl-3-benzyltriazeno)-2-(4-chlorophenyl)imidazole], which ILS at 100 mg/kg (R1 lymphoma [1]; Table A strain, 100 mg/kg i.p. daily day 3 to day 7, dose of maximum increase) is on record?
Answer: 40%

Question: For `CN(C)N=Nc1[nH]cnc1C(N)=O` [DIC, 4-Carboxamide-5-(3,3-dimethyltriazeno)imidazole, reference compound], which ILS at 32 mg/kg (R1 lymphoma [1]; [8]) is on record?
Answer: 300%

Question: And the ILS at 33 mg/kg (R1 lymphoma [2]; [9])?
Answer: 60%

Question: What about the “Therapeutic Index” value (PC 6 tumour; i.p. dosing) of the same compound?
Answer: 33

Question: And the “Therapeutic Index” value (PC 6 tumour; oral dosing)?
Answer: 24

Question: What about the degradation in man [7] of the same compound?
Answer: degraded substantially to AIC

Question: With `CN(Cc1cnc2nc(N)nc(N)c2n1)c1ccc(C(=O)N[C@@H](CCC(=O)O)C(=O)O)cc1` [Methotrexate, 4-amino-10-methyl folic acid, reference compound] as the compound, how does the ILS at 2 mg/kg (R1 lymphoma [1]) read?
Answer: 100%

Question: What about the ILS at 2 mg/kg (R1 lymphoma [2]; Mus musculus, ip, read-out: Medium % increase in survival time) of the same compound?
Answer: 60%

Question: And the ID90 [3, 10]?
Answer: Inactive
